Source: patent US10144732B2 (BIOGEN MA INC., priority 2014, dated 2018)
Where a name gives a salt, the structure may show the parent alone.

Each compound was assayed against T1, Human ATX protein (Homo sapiens, UniProt Q13822) (assay: ATX biochemical assay (FRET, FS-3 substrate)). Settings: FRET assay, FS-3 2 μM, ATX 1.0 μg/mL, 30 minutes preincubation, 2 hours reaction at room temperature; read-out: IC50.
T1 construct: made in house
Method in brief: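 FRET read-out: cleavage of FS-3 (2 μM final) unquenches fluorescein, measured at 485/538 nm after 2 h at room temperature. Before substrate addition, in-house-expressed human autotaxin (1.0 μg/mL) sat with compound for 30 min in pH 7.4 Tris/NaCl/KCl/CaCl2/MgCl2 buffer containing fatty acid free-BSA at 1 mg/mL.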
With O=C(CC1CCNC(C(F)(F)F)C1)N1CCc2c(C(F)(F)F)nn(Cc3ccc(Cl)cc3F)c2C1 (stereo not drawn) [Example 9-7, 1-(1-(4-Chloro-2-fluorobenzyl)-3-(trifluoromethyl)-4,5-dihydro-1H-pyrazolo[3,4-c]pyridin-6(7H)-yl)-2-(2-(trifluoromethyl)piperidin-4-yl)ethanone TFA salt] the IC50 was no more than 100 nM.
In the case of CCOC(=O)[C@H]1CC[C@H](CC(=O)N2CCc3c(CO)nn(Cc4ccc(F)cc4)c3C2)CC1 [Example 1-41, trans-Ethyl-4-(2-(1-(4-fluorobenzyl)-3-(hydroxymethyl)-4,5-dihydro-1H-pyrazolo[3,4-c]pyridin-6(7H)-yl)-2-oxoethyl)cyclohexanecarboxylate], the IC50 is reported as 250 to 500 nM.
With O=C(C[C@H]1CC[C@H](C(=O)O)CC1)N1CCc2c(C(F)(F)F)nn(Cc3cc(F)cc(Cl)c3)c2C1 [Example 5-3, trans-4-(2-(1-(3-chloro-5-fluorobenzyl)-3-(trifluoromethyl)-4,5-dihydro-1H-pyrazolo[3,4-c]pyridin-6(7H)-yl)-2-oxoethyl)cyclohexanecarboxylic acid] the IC50 was no more than 100 nM.
O=C(C[C@H]1CC[C@H](C(=O)O)CC1)N1CCc2c(C(F)(F)F)nn(Cc3ccc(F)c(F)c3)c2C1 [Example 5-31, trans-4-(2-(1-(3,4-Difluorobenzyl)-3-(trifluoromethyl)-4,5-dihydro-1H-pyrazolo[3,4-c]pyridin-6(7H)-yl)-2-oxoethyl)cyclohexanecarboxylic acid] gave an IC50 of no more than 100 nM.
O=C(O)C12CCC(C(=O)N3CCc4c(C(F)(F)F)nn(Cc5ccc(Cl)cc5F)c4C3)(CC1)C2 [Example 5-51] gave an IC50 of no more than 100 nM.
CCOc1nn(Cc2ccc(F)cc2)c2c1CCN(C(=O)C[C@H]1CC[C@H](C(=O)O)CC1)C2 [Example 5-42, trans-4-(2-(3-Ethoxy-1-(4-fluorobenzyl)-4,5-dihydro-1H-pyrazolo[3,4-c]pyridin-6(7H)-yl)-2-oxoethyl)cyclohexanecarboxylic acid] was tested, and the IC50 was no more than 100 nM.
Work on CN1CCCC(CC(=O)N2CCc3c(C(F)(F)F)nn(Cc4ccc(F)cc4)c3C2)C1 (stereo not drawn) [Example 11-1, 1-(1-(4-Fluorobenzyl)-3-(trifluoromethyl)-4,5-dihydro-1H-pyrazolo[3,4-c]pyridin-6(7H)-yl)-2-(1-methylpiperidin-3-yl)ethanone formate] yielded an IC50 of no more than 100 nM.
Work on O=C(O)CC1CN(CC(=O)N2CCc3c(C(F)(F)F)nn(Cc4ccc(F)cc4)c3C2)C1 [Example 13-23, 2-(1-(2-(1-(4-Fluorobenzyl)-3-(trifluoromethyl)-4,5-dihydro-1H-pyrazolo[3,4-c]pyridin-6(7H)-yl)-2-oxoethyl)azetidin-3-yl)acetic acid TFA salt] yielded an IC50 of no more than 100 nM.
O=C(CN[C@H]1C[C@@H](C(=O)O)C1)N1CCc2c(C(F)(F)F)nn(Cc3ccc(F)cc3)c2C1 [Example 13-28, cis-3-(2-(1-(4-Fluorobenzyl)-3-(trifluoromethyl)-4,5-dihydro-1H-pyrazolo[3,4-c]pyridin-6(7H)-yl)-2-oxoethylamino)cyclobutanecarboxylic acid TFA salt] was tested, and the IC50 was no more than 100 nM.
O=C(CC1CC(N2CCC2)C1)N1CCc2c(C(F)(F)F)nn(Cc3ccc(F)cc3)c2C1 (stereo not drawn) [Example 22-1, 2-(3-(Azetidin-1-yl)cyclobutyl)-1-(1-(4-fluorobenzyl)-3-(trifluoromethyl)-4,5-dihydro-1H-pyrazolo[3,4-c]pyridin-6(7H)-yl)ethanone TFA salt] was tested, and the IC50 was no more than 100 nM.
Work on O=C(O)CC1CCN(CC(=O)N2CCc3c(C(F)(F)F)nn(Cc4ccc(Cl)cc4F)c3C2)CC1 [Example 13-13, 2-(1-(2-(1-(4-Chloro-2-fluorobenzyl)-3-(trifluoromethyl)-4,5-dihydro-1H-pyrazolo[3,4-c]pyridin-6(7H)-yl)-2-oxoethyl)piperidin-4-yl)acetic acid TFA salt] yielded an IC50 of no more than 100 nM.
Work on O=C(O)C1CC2(CC(CC(=O)N3CCc4c(C(F)(F)F)nn(Cc5ccc(Cl)cc5F)c4C3)C2)C1 (stereo not drawn) [Example 6-12, 6-(2-(1-(4-Chloro-2-fluorobenzyl)-3-(trifluoromethyl)-4,5-dihydro-1H-pyrazolo[3,4-c]pyridin-6(7H)-yl)-2-oxoethyl)spiro[3.3]heptane-2-carboxylic acid] yielded an IC50 of no more than 100 nM.
In the case of CNC12CCC(C(=O)N3CCc4c(C(F)(F)F)nn(Cc5ccc(F)cc5)c4C3)(CC1)CC2 [Example 9-22, (1-(4-Fluorobenzyl)-3-(trifluoromethyl)-4,5-dihydro-1H-pyrazolo[3,4-c]pyridin-6(7H)-yl)(4-(methylamino)bicyclo[2.2.2]octan-1-yl)methanone TFA salt], the IC50 is reported as 250 to 500 nM.
With COC(=O)C1CCN(CC(=O)N2CCc3c(C(F)(F)F)nn(Cc4ccc(F)cc4)c3C2)CC1 [Example 12-1, Methyl 1-(2-(1-(4-fluorobenzyl)-3-(trifluoromethyl)-4,5-dihydro-1H-pyrazolo[3,4-c]pyridin-6(7H)-yl)-2-oxoethyl)piperidine-4-carboxylate] the IC50 was no more than 100 nM.
O=C(O)[C@@H]1CC(CC(=O)N2CCc3c(C(F)(F)F)nn(Cc4ccc(Cl)cc4F)c3C2)CN1 (stereo partly drawn) [Example 9-8, (2s)-4-(2-(1-(4-Chloro-2-fluorobenzyl)-3-(trifluoromethyl)-4,5-dihydro-1H-pyrazolo[3,4-c]pyridin-6(7H)-yl)-2-oxoethyl)pyrrolidine-2-carboxylic acid TFA salt] was tested, and the IC50 was no more than 100 nM.
O=C(CCc1nnn[nH]1)N1CCc2c(C(F)(F)F)nn(Cc3ccc(F)cc3)c2C1 [Example 1-32, 1-(1-(4-Fluorobenzyl)-3-(trifluoromethyl)-4,5-dihydro-1H-pyrazolo[3,4-c]pyridin-6(7H)-yl)-3-(1H-tetrazol-5-yl)propan-1-one] was tested, and the IC50 was no more than 100 nM.
N[C@H]1CC[C@H](CC(=O)N2CCc3c(C(F)(F)F)nn(Cc4ccc(F)cc4)c3C2)CC1 [Example 9-20, 2-(trans-4-Aminocyclohexyl)-1-(1-(4-fluorobenzyl)-3-(trifluoromethyl)-4,5-dihydro-1H-pyrazolo[3,4-c]pyridin-6(7H)-yl)ethanone TFA salt] showed an IC50 of no more than 100 nM.
In the case of N#C[C@H]1CC[C@H](CC(=O)N2CCc3c(C(F)(F)F)nn(Cc4ccc(F)cc4)c3C2)CC1 [Example 21-2, trans-4-(2-(1-(4-Fluorobenzyl)-3-(trifluoromethyl)-4,5-dihydro-1H-pyrazolo[3,4-c]pyridin-6(7H)-yl)-2-oxoethyl)cyclohexanecarbonitrile], the IC50 is reported as no more than 100 nM.
For O=C(O)C1CCC(CC(=O)N2CCc3c(C(F)(F)F)nn(Cc4ccccc4F)c3C2)CC1 (mixture of isomers) [Example 6-3, 4-(2-(1-(2-Fluorobenzyl)-3-(trifluoromethyl)-4,5-dihydro-1H-pyrazolo[3,4-c]pyridin-6(7H)-yl)-2-oxoethyl)cyclohexanecarboxylic acid], the IC50 was no more than 100 nM.
With O=C(O)C1CC2CCC(C1)C2CC(=O)N1CCc2c(C(F)(F)F)nn(Cc3ccc(Cl)cc3F)c2C1 (mixture of isomers) [Example 6-10, 8-(2-(1-(4-Chloro-2-fluorobenzyl)-3-(trifluoromethyl)-4,5-dihydro-1H-pyrazolo[3,4-c]pyridin-6(7H)-yl)-2-oxoethyl)bicyclo[3.2.1]octane-3-carboxylic acid] the IC50 was no more than 100 nM.

Same assay, conditions: IC50, FRET assay, FS-3 2 μM, ATX 1.0 μg/mL, 30 minutes preincubation, 2 hours reaction at room temperature
In the case of CN1C2CCC1CC(CC(=O)N1CCc3c(C(F)(F)F)nn(Cc4ccc(Cl)cc4F)c3C1)C2 (stereo not drawn) [Example 10-1, 1-(1-(4-Chloro-2-fluorobenzyl)-3-(trifluoromethyl)-4,5-dihydro-1H-pyrazolo[3,4-c]pyridin-6(7H)-yl)-2-(8-methyl-8-aza-bicyclo[3.2.1]octan-3-yl)ethanone TFA salt], the IC50 is reported as no more than 100 nM.
